These results are taken from patent US7462641B2, “(2S,4S)-4-fluoro-1-[4-fluoro-beta-(4-fluorophenyl)-L-phenylalanyl]-2-pyrrolidinecarbonitrile p-toluenesulfonic acid salt and anhydrous crystalline forms thereof” (SmithKline Beecham Corporation, priority 2003, dated 2008).

A short description of series [1]: Stability testing in 40 C/75% RH oven. In kind it is physicochemical. The conditions noted are these: after two (2) weeks in an 40 C/75% RH oven.
A short description of series [2]: Moisture sorption testing (gas flow microbalance, VTI SGA-100). Type of series: physicochemical. The settings on record: for hygroscopicity: 25° C.
Description: The sample was equilibrated at 25° C. and 30% relative humidity and the relative humidity increased stepwise (adsorption) to 40, 50, 60, 70, 80, 90%—each relative humidity step was held until the sample equilibrated at that condition. Equilibrium was defined as a weight change of less than 0.015% in 5 minutes. The relative humidity was then decreased step wise (desorption) to 90, 80, 70, 60, 50, 40, 30, 20, 10, and 5%—each step held until equilibrium was reached. The equilibrium condition was the same as in the sorption phase. The % w/w increase or decrease in moisture content of the sample is reported for each equilibrated RH condition.
The sample was dried at 60C under a dry nitrogen stream until the rate of weight loss was less than 0.015% in 5 minutes. After drying the sample was equilibrated at 25C and the relative humidity increased stepwise (adsorption) to 5, 20, 45, 75, and 95%—each relative humidity step was held until the sample equilibrated at that condition or a 180 minute time limit was reached. Equilibrium was defined as a weight change of less than 0.015% in 5 minutes. The relative humidity was then decreased step wise (desorption) to 75, 45, and 20%—each step held until equilibrium was reached. The equilibrium condition was the same as in the sorption phase. The % w/w increase or decrease in moisture content of the sample is reported for each equilibrated RH condition.
Another series concerns the target DPP IV (Homo sapiens, UniProt P27487). The settings on record: as noted in WO 03/02531; cited from earlier work.

The structures appear in SMILES notation. Where a name gives a salt, the structure may show the parent alone.

DPP IV, sequence (P27487 whole entry, species assumed): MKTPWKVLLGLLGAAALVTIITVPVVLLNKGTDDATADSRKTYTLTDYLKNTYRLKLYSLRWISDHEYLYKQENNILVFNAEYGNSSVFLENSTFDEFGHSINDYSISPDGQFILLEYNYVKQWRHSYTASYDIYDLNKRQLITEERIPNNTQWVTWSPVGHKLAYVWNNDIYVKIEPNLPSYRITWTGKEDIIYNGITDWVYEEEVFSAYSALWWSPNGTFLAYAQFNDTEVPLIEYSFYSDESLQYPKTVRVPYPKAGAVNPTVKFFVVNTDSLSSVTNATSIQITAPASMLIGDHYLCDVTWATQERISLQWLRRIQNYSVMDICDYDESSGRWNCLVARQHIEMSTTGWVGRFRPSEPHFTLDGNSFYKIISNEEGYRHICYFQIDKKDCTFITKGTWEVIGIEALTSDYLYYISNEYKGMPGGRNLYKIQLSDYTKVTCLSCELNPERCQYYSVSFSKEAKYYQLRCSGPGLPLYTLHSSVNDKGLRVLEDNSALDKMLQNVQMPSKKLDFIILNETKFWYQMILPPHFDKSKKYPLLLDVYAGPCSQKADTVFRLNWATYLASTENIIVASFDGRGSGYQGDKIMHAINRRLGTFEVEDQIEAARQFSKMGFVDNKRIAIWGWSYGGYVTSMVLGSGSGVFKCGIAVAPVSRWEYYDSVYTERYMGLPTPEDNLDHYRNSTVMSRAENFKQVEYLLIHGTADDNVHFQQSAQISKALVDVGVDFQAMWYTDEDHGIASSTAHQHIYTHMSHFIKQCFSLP

Turning to `N#C[C@@H]1C[C@H](F)CN1C(=O)[C@@H](N)C(c1ccc(F)cc1)c1ccc(F)cc1` [anhydrate form 1, (2S,4S)-4-fluoro-1-[4-fluoro-β-(4-fluorophenyl)-L-phenylalanyl]-2-pyrrolidinecarbonitrile p-toluenesulfonic acid salt], in series [1], the “stability (purity data)” value is on record as “beneficial properties with regard to stability”. Besides, the hygroscopicity entry in series [2] is recorded as “not hygroscopic”. Further, the water adsorbed result in series [2] (relative humidity between 0% and 95% at 25C) is recorded as “less than 1 % w/w”; in series [2] (relative humidity between 5% to 90% at 25° C.), “very little water”. The “desorption of adsorbed water” value in series [2] (when the relative humidity is decreased) is reported as “readily desorbs”.
As to `N#C[C@@H]1C[C@H](F)CN1C(=O)[C@@H](N)C(c1ccc(F)cc1)c1ccc(F)cc1` [HCl salt, (2S,4S)-1-[(2S)-2-Amino-3,3-bis(4-fluorophenyl)propanoyl]-4-fluoropyrrolidine-2-carbonitrile hydrochloride, reference compound], the hygroscopicity result in series [2] (hydrochloride) was “hygroscopic”. For the same compound, the water adsorbed in series [2] (95% relative humidity at 25° C.) is given as greater than 10%. Besides, at DPP IV, the “inhibition activity of DPP IV” value was “demonstrates inhibition activity of DPP IV”.
